Usually bioavailability stands for dose-corrected exposure relative to a reference, in per cent. As usually defined, the half-life is the time needed for the level to fall by half in the phase considered. Lower therefore signals fast loss. One may read the clearance as the volume of plasma or blood freed of the substance per unit of time. By Tmax is commonly meant the time at which the peak concentration occurs. The Cmax is the peak of the concentration-time curve. A word on the IC50: it is the concentration needed to halve the response being measured. A higher IC50 goes with weaker potency.

The nature of data set [1]: Oral bioavailability in rat at 10 mg/kg. Particulars: in vivo. It counts as ADME, organism-based.
Data set [2] in a line: Dose normalized AUC in rat at 4 mg/kg, iv. The format is ADME, organism-based. The conditions noted are these: in vivo.
A short description of data set [3]: Half life in rat at 4 mg/kg, iv. It counts as ADME, organism-based. Particulars: in vivo.
The nature of data set [4]: Volume of distribution at steady state in rat at 4 mg/kg, iv. It counts as ADME, organism-based. The conditions noted are these: in vivo, read-out: Vdss.
Data set [5] in a line: Clearance in rat at 4 mg/kg, iv. It counts as ADME, organism-based. The conditions noted are these: in vivo.
Data set [6] in a line: Tmax in rat at 10 mg/kg, po. It counts as ADME, organism-based. Particulars: in vivo.
A short description of data set [7]: Cmax in rat at 10 mg/kg, po. The format is ADME, organism-based. Further details: route oral, dose 10 mg/kg. The conditions noted are these: in vivo.
Data set [8] in a line: Clearance in rat at 2 mg/kg, iv. The format is ADME, organism-based. Particulars: in vivo.
Data set [9] in a line: Tmax in rat at 5 mg/kg, po. It counts as ADME, organism-based. The conditions noted are these: in vivo.
Data set [10] is described as follows: Volume of distribution at steady state in rat at 2 mg/kg, iv. It counts as ADME, organism-based. The conditions noted are these: in vivo, read-out: Vdss.
A short description of data set [11]: Dose normalized AUC in rat at 2 mg/kg, iv. The format is ADME, organism-based. Particulars: in vivo.
Data set [12] can be described thus: Volume of distribution at steady state in dog at 1 mg/kg, iv. The conditions noted are these: in vivo, read-out: Vdss. It counts as ADME, organism-based, Canis lupus familiaris.
Data set [13] can be described thus: Tmax in dog at 2 mg/kg, po. It counts as ADME, organism-based, Canis lupus familiaris. Particulars: in vivo.
Data set [14] is described as follows: Clearance in dog at 1 mg/kg, iv. The conditions noted are these: in vivo. It counts as ADME, organism-based, Canis lupus familiaris.
Data set [15] in a line: Oral bioavailability in rat at 5 mg/kg. Particulars: in vivo. The format is ADME, organism-based.
Data set [16] is described as follows: Cmax in dog at 2 mg/kg, po. The format is ADME, organism-based, Canis lupus familiaris. Further details: route oral, dose 2 mg/kg. Particulars: in vivo.
A short description of data set [17]: Oral bioavailability in dog at 2 mg/kg. It counts as ADME, organism-based, Canis lupus familiaris. Particulars: in vivo.
Data set [18] in a line: Half life in dog at 1 mg/kg, iv. It counts as ADME, organism-based, Canis lupus familiaris. The conditions noted are these: in vivo.
A short description of data set [19]: Half life in rat at 2 mg/kg, iv. It counts as ADME, organism-based. Particulars: in vivo.
Data set [20] can be described thus: Dose normalized AUC in dog at 1 mg/kg, iv. It counts as ADME, organism-based, Canis lupus familiaris. The conditions noted are these: in vivo.
A short description of data set [21]: Cmax in rat at 5 mg/kg, po. It counts as ADME, organism-based. Further details: route oral, dose 5 mg/kg. The conditions noted are these: in vivo.
Data set [22] addresses Tyrosine-protein kinase Lyn (Homo sapiens, UniProt P07948). Description: Inhibition of human LYNB.
Data set [23] concerns the target Proto-oncogene tyrosine-protein kinase Src (Homo sapiens, UniProt P12931). Briefly: Inhibition of human SRC.
Data set [24] concerns the target Tyrosine-protein kinase Fyn (Homo sapiens, UniProt P06241). Description: Inhibition of human FYN.
The target in data set [25] is T1, Tyrosine-protein kinase TXK (Homo sapiens, UniProt P42681).
T1 sequence (P42681 whole entry): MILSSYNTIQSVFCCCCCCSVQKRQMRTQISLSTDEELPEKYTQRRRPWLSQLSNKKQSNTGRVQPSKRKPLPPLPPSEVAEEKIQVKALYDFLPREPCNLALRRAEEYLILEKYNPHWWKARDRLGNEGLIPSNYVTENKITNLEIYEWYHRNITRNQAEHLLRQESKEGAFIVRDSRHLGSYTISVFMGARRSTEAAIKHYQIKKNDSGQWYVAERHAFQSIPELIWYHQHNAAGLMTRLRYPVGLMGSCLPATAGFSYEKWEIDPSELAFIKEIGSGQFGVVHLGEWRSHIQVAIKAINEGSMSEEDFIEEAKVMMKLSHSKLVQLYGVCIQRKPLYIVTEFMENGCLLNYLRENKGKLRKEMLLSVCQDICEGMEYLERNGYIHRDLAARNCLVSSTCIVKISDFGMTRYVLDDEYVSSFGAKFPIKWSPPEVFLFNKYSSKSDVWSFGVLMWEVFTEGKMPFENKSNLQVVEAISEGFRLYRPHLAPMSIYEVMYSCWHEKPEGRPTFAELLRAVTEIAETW
Briefly: Inhibition of human TXK.

Data set [26] addresses Protein-tyrosine kinase 6 (Homo sapiens, UniProt Q13882). Briefly: Inhibition of human PTK6.
The target of data set [27] is Tyrosine-protein kinase Fgr (Homo sapiens, UniProt P09769). Briefly: Inhibition of human FGR.
Data set [28] concerns the target Receptor tyrosine-protein kinase erbB-4 (Homo sapiens, UniProt Q15303). Briefly: Inhibition of human ERBB4.
Data set [29] has as its target T2, Cytoplasmic tyrosine-protein kinase BMX (Homo sapiens, UniProt P51813).
T2 sequence (P51813 whole entry): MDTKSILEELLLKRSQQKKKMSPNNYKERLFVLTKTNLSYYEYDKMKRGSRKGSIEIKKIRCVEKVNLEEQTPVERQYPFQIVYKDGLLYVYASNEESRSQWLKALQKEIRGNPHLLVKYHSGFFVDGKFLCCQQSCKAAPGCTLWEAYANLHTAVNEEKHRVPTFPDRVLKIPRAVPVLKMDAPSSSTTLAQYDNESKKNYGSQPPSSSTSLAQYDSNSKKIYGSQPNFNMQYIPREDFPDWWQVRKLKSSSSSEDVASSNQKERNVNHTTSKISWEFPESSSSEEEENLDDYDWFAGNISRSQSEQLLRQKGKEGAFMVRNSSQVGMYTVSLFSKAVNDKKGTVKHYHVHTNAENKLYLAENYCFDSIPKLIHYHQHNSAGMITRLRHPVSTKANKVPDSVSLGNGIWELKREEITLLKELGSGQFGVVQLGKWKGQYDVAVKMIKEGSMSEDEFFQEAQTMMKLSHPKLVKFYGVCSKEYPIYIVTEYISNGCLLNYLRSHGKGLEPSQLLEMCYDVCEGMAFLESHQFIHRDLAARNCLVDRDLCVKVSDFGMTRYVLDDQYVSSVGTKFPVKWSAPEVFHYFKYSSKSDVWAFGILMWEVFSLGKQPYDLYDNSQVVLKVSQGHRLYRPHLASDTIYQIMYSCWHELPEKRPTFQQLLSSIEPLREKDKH
Description: Inhibition of human BMX.

Data set [30] addresses Tyrosine-protein kinase Yes (Homo sapiens, UniProt P07947). Description: Inhibition of human YES1.
In data set [31] the target is Tyrosine-protein kinase CSK (Homo sapiens, UniProt P41240). Description: Inhibition of human CSK.
Data set [32] deals with T3, Tyrosine-protein kinase ITK/TSK (Homo sapiens, UniProt Q08881).
T3 sequence (Q08881 whole entry): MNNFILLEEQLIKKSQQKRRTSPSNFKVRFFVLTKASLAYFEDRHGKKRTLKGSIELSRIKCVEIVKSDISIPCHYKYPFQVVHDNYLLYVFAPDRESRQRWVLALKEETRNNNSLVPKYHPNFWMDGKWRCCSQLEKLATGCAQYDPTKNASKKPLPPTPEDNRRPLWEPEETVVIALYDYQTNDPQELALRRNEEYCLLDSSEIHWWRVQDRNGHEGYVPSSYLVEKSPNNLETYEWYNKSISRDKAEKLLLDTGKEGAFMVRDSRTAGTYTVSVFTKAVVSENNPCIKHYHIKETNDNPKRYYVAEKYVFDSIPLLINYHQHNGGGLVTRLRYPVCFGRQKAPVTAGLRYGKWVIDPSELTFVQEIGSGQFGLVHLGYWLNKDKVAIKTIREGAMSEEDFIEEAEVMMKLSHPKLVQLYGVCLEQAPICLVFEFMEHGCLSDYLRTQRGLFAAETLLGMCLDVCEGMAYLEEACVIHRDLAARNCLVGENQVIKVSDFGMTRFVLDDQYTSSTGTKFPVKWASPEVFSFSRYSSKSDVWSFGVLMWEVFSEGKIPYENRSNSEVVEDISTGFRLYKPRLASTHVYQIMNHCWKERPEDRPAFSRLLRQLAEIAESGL
Briefly: Inhibition of human ITK.

For data set [33], the target named is Tyrosine-protein kinase Lck (Homo sapiens, UniProt P06239). Briefly: Inhibition of human LCK.
In data set [34] the target is Tyrosine-protein kinase Srms (Homo sapiens, UniProt Q9H3Y6). Briefly: Inhibition of human SRMS.
Data set [35] addresses Tyrosine-protein kinase FRK (Homo sapiens, UniProt P42685). Description: Inhibition of human FRK.
Data set [36] has as its target T4, Tyrosine-protein kinase Tec (Homo sapiens, UniProt P42680).
T4 sequence (P42680 whole entry): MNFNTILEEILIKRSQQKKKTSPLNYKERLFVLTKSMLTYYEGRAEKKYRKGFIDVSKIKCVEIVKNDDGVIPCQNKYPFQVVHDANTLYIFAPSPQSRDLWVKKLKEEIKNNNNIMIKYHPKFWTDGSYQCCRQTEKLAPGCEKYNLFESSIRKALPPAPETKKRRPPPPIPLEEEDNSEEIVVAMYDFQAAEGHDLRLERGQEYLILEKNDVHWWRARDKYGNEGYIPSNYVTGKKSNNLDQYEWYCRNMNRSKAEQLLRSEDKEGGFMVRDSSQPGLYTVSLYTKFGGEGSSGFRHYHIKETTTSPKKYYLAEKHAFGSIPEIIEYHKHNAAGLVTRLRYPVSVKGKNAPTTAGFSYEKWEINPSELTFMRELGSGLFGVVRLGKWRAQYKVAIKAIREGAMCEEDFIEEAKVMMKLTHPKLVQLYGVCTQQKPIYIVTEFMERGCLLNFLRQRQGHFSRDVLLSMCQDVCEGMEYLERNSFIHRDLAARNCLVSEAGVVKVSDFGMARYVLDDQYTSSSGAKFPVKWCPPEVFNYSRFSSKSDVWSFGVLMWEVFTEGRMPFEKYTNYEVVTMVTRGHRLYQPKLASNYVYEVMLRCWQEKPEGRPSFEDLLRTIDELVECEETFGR
Briefly: Inhibition of human TEC.

Data set [37] concerns the target Tyrosine-protein kinase Blk (Homo sapiens, UniProt P51451). Briefly: Inhibition of human BLK.

Sequence of Tyrosine-protein kinase Lyn (P07948 whole entry): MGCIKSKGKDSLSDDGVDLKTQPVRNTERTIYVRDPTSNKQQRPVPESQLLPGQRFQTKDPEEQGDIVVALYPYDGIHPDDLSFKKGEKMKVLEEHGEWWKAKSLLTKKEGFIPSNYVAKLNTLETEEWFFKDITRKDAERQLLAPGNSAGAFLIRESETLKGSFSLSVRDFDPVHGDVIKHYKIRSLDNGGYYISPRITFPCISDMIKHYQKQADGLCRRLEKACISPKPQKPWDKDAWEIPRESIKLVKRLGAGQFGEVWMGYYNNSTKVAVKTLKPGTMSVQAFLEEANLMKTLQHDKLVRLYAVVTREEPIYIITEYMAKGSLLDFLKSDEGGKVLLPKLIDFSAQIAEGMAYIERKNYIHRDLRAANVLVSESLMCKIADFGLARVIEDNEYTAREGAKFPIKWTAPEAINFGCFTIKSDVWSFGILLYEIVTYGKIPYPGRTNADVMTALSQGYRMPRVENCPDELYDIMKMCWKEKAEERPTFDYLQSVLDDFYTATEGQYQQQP
Sequence of Protein-tyrosine kinase 6 (Q13882 whole entry): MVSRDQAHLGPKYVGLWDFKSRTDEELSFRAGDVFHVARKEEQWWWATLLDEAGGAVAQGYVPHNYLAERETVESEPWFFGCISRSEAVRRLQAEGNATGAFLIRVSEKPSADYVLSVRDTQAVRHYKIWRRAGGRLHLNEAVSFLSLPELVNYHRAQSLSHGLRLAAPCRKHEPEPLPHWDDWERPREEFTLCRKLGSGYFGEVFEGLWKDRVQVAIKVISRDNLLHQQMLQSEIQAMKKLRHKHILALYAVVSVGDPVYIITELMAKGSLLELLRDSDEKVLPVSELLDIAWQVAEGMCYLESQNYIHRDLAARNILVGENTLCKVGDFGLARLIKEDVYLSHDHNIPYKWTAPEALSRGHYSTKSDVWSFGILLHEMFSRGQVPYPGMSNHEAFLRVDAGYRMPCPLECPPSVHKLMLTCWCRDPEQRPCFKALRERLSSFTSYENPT
Sequence of Tyrosine-protein kinase Srms (Q9H3Y6 whole entry): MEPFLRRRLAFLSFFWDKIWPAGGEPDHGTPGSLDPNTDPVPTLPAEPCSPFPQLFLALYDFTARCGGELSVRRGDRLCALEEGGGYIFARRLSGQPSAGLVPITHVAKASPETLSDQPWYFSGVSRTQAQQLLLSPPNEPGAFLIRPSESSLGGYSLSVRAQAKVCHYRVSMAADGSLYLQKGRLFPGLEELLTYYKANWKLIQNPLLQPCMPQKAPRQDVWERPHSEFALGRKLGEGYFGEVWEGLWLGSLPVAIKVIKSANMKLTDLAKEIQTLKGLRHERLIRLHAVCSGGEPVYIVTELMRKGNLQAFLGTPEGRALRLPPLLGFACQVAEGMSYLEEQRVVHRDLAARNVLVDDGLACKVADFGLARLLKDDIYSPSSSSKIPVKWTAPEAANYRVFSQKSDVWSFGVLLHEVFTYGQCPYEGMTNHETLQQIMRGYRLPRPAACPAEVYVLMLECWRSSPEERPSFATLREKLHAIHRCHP
Sequence of Tyrosine-protein kinase Fgr (P09769 whole entry): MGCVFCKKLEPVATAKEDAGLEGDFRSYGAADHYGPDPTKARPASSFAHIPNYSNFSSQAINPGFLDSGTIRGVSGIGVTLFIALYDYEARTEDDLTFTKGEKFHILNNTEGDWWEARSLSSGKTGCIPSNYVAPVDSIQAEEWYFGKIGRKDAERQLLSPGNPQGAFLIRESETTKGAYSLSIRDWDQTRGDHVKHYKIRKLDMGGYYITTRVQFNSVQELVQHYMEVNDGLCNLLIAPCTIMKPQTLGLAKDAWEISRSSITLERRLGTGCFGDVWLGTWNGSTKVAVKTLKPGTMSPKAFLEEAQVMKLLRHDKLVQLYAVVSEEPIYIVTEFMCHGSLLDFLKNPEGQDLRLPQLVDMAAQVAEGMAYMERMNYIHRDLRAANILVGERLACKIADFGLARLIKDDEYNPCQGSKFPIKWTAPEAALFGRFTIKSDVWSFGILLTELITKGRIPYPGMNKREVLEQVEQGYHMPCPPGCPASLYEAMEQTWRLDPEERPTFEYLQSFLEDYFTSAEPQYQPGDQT
Sequence of Tyrosine-protein kinase CSK (P41240 whole entry): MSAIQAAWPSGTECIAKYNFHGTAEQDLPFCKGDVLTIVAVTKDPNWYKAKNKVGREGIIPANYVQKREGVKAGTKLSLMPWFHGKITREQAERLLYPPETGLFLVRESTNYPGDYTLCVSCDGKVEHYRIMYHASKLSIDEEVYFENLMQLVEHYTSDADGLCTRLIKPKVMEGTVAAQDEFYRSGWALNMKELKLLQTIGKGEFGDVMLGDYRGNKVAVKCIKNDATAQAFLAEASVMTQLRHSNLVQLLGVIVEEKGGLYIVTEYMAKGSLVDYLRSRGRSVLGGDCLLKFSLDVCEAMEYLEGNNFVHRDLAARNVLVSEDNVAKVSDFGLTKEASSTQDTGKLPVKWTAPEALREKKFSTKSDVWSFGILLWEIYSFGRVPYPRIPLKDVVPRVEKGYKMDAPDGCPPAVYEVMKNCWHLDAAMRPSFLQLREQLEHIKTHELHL
Sequence of Tyrosine-protein kinase Fyn (P06241 whole entry): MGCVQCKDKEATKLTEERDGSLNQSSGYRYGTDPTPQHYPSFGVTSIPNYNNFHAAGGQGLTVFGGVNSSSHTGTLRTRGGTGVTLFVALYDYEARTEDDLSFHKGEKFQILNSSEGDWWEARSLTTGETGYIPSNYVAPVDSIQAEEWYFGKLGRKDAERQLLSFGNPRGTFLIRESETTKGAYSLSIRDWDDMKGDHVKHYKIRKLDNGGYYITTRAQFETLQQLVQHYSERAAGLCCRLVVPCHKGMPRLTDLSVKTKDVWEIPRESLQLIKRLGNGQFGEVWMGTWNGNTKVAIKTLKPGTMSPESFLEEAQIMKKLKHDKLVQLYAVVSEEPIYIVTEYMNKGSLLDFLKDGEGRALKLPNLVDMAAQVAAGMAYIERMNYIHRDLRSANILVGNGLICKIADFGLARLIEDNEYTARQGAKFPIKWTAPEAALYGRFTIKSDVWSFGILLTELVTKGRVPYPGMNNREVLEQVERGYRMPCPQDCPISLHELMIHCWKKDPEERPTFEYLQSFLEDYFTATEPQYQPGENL
Sequence of Tyrosine-protein kinase Blk (P51451 whole entry): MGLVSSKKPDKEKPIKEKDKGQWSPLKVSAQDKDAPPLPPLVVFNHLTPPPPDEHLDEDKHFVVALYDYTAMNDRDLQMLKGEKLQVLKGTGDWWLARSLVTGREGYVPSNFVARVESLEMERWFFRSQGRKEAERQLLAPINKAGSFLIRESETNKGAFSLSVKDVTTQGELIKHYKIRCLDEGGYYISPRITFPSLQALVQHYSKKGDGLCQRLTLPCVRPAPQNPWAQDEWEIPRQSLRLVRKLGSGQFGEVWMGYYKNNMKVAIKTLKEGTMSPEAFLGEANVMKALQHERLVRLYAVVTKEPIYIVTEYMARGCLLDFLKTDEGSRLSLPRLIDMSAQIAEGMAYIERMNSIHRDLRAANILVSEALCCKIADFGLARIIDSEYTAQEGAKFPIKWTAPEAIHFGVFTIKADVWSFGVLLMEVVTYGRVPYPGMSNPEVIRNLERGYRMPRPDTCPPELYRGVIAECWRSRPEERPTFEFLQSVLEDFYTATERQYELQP
Sequence of Tyrosine-protein kinase Yes (P07947 whole entry): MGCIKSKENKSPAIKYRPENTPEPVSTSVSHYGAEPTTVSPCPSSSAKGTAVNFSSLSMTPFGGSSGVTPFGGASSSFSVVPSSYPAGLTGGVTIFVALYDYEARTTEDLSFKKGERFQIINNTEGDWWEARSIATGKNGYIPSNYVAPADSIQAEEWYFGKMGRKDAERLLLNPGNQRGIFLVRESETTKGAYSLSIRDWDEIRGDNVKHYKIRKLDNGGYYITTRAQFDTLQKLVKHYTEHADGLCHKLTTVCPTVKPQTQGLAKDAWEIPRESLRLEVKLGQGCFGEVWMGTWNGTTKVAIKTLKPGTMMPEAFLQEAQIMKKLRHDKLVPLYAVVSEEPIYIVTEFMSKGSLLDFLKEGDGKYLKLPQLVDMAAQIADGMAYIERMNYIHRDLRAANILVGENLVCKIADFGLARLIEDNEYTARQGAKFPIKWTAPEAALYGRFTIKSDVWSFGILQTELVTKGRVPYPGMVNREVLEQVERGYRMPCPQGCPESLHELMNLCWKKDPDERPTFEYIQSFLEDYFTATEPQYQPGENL
Sequence of Tyrosine-protein kinase Lck (P06239 whole entry): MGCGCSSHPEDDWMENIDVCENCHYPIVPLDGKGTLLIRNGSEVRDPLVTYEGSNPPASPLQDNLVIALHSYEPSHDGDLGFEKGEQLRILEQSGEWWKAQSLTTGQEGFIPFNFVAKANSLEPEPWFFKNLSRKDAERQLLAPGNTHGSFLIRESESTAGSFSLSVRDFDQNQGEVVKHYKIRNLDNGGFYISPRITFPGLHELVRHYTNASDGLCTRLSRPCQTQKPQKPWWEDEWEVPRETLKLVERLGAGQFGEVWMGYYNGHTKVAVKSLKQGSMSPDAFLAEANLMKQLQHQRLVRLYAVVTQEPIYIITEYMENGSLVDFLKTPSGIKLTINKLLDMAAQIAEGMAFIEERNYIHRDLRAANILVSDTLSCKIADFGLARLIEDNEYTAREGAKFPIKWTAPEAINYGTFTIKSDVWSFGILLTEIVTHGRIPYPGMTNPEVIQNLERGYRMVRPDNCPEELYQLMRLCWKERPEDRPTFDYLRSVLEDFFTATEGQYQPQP

With `CC1(C(=O)N2CCC[C@@H](c3nc(-c4ccc(C(=O)Nc5cc(C(F)(F)F)ccn5)cc4)c4c(N)nccn34)C2)COC1`, the bioavailability in data set [1] is 84%. The compound also returned an AUC/dose in data set [2] of 5.1 µM·h. This compound also had a half-life in data set [3] of 1.2 h. In data set [4], the Vd turned out to be 0.59 L/kg. The compound also came in with a clearance in [5] of 6.3 mL/min/kg. Moreover, in data set [6], the time of peak concentration (Tmax) was determined as 2.2 h. This compound gave a Cmax in [7] of 4800 nM.
In the case of `C[C@H]1CC[C@@H](c2nc(-c3ccc(C(=O)Nc4cc(C(F)(F)F)ccn4)cc3F)c3c(N)nccn23)CN1C(=O)C1CC1`, the results for the clearance in [8] and in data set [14] were 18 mL/min/kg and 1.5 mL/min/kg, respectively. The time of peak concentration (Tmax) in data set [9] was determined as 1 h; in data set [13], 2 h. Moreover, the Vd in data set [10] was 2.6 L/kg; in data set [12], 0.65 L/kg. Moreover, the AUC/dose in data set [11] was 1.6 µM·h; in [20] it was 20 µM·h. In addition, the values for the bioavailability in [15] and in data set [17] were 22% and 82%, respectively. The Cmax in [16] amounted to 3900 nM; in data set [21] it was 400 nM. The half-life in [18] is 6.5 h; in [19] it was 1.8 h.
`CC1(C(=O)N2CCC[C@@H](c3nc(-c4ccc(C(=O)Nc5cc(C(F)(F)F)ccn5)cc4F)c4c(N)nccn34)C2)COC1`: the IC50 in data set [22] is 184 nM; in data set [23] it was 116 nM; in data set [24], 322 nM; in data set [25], 32 nM; in data set [26], 63 nM; in data set [27], 55 nM. In addition, the half-inhibitory concentration (IC50) in data set [28] is 81 nM; in data set [29] it was 20 nM; in [30], 43 nM; in data set [31] it was 253 nM; in data set [32], 921 nM; in [33] it was 22 nM. In addition, the half-maximal inhibitory concentration (IC50) was 24 nM in data set [34], 187 nM in data set [35], 69 nM in data set [36] and 42 nM in data set [37]. Also, the clearance in data set [8] turned out to be 24 mL/min/kg; in data set [14], 11 mL/min/kg. Also, the results for the Tmax in data set [9] and in data set [13] were 0.5 h and 1 h, respectively. In addition, the Vd in data set [10] worked out at 1.7 L/kg; in data set [12], 2 L/kg. Moreover, the AUC/dose amounted to 1.1 µM·h in [11] and 3 µM·h in [20]. In addition, the bioavailability in data set [15] was 77%; in [17], 60%. Moreover, the Cmax in data set [16] worked out at 780 nM; in data set [21], 1000 nM. Also, the half-life is 4.1 h in data set [18] and 1.4 h in [19].

The record behind these values is ChEMBL document CHEMBL4715708, “Discovery of 8-Amino-imidazo[1,5-a]pyrazines as Reversible BTK Inhibitors for the Treatment of Rheumatoid Arthritis” (ACS Med Chem Lett, 2016).
